Assay results taken from patent US20090275653A1, “POLYMORPHIC FORMS OF LADOSTIGIL TARTRATE” (priority 2005, published 2009).

Assays:
[1] = tested on: animal models of Alzheimer's disease; details: background statement, literature; cited from earlier work
[2] = Water content (Karl Fischer) and loss on drying (TGA) of the form as obtained; type: physicochemical
Experimental: (§1) TGA analysis was performed using a Mettler M3 meter. The weight of the samples was about 10 mg. The samples were scanned at a rate of 10° C./min from 25° C. to 200° C. The oven was constantly purged with nitrogen gas at a flow rate of 40 ml/min. Standard 70 μl alumina crucibles covered by lids with 1 hole were used.
(§2) The water content of ladostigil tartrate was measured by methods known in the art, such Karl Fischer analysis.

[3] = Hygroscopicity study: exposure to 0-100% relative humidity at room temperature (Karl Fischer, TGA, crystal form by XRD); type: physicochemical; parameters: TGA: unit not given here
Source text: Form E was placed for 1 week under 0-100% relative humidity at room temperature. Table 1 summarizes the results:
Form F was placed for 14 days under 0-100% relative humidity at room temperature. Table 2 summarizes the results:
Form H was placed for 14 days under 0-100% relative humidity at room temperature. Table 3 summarizes the results:
Form J1 was placed for 9 days under 0-100% relative humidity at room temperature. Table 4 summarizes the results:
Table 5 summarizes the results:
X-Ray powder diffraction data were obtained by method known in the art using a SCINTAG powder X-Ray diffractometer model X'TRA equipped with a solid state detector. Copper radiation of 1.5418 Å was used. A round aluminum sample holder with round zero background quartz plate, with a cavity of 25(diameter)*0.5(depth) mm was used.
as §1, §2
Crystal form was determined after equilibration of ladostigil tartrate form A for 10 days at various relative humidities at room temperature.
Form A1 was exposed at various humidity conditions at room temperature for 13 days.
Ladostigil tartrate form A1 was exposed to various humidity conditions at room temperature for 14 days. TGA was performed, and the crystal form was analyzed.
A mixture of ladostigil tartrate form A1 and E, containing primarily form A1, was exposed at various humidity conditions at room temperature for 14 days.
Form E was placed for 7 days under 0-100% relative humidity at room temperature. Table 12 summarizes the results:
Form F was placed for 14 days under 0-100% relative humidity at room temperature. Table 14 summarizes the results:
Ladostigil tartrate Form H was exposed for 14 days under 0-100% relative humidity at room temperature. Table 15 summarizes the results:
Crystal ladostigil tartrate Form J1 was placed for 9 days under 0-100% relative humidity at room temperature.

[4] = Effect of freezing (XRD); type: physicochemical; details: freezer at about −25° C. for 3 months
Experimental: The effects of freezing was determined by XRD and the following results were obtained:
Form A1 was kept in a freezer at about −25° C. for 3 months. Form A1 transformed to Form A in freezer.

[5] = Effect of micronization, pressing and grinding (XRD); type: physicochemical; details: pressing 1 minute at 100 metric tons
Experimental: The effects of micronization, pressing (1 minute at 100 metric tons) and grinding were determined by XRD and the following results were obtained: […]

[6] = 100% RH, 13 days, room temperature
[7] = 100% RH, 14 days, room temperature

Compound | Efficacy in animal models of Alzheimer's disease [1] | Weight loss / loss on drying by TGA [2] [%] | Water content ([2]; by weight) | KF (Karl Fischer analysis) ([3]; 0% RH, 13 days, room temperature) [%] | KF (Karl Fischer analysis) ([3]; 20% RH, 13 days, room temperature) [%] | KF (Karl Fischer analysis) ([3]; 40% RH, 13 days, room temperature) [%] | KF (Karl Fischer analysis) ([3]; 60% RH, 13 days, room temperature) [%] | TGA ([3]; 60% RH, 14 days, room temperature) | KF (Karl Fischer analysis) ([3]; 80% RH, 13 days, room temperature) [%] | TGA ([3]; 80% RH, 14 days, room temperature) | KF (Karl Fischer analysis) [3, 6] [%] | Resulting form [3, 6] | Crystal Form (resulting form) [3, 7] | TGA [3, 7] | Hygroscopicity ([3]; conclusion in words) | Crystal form upon exposure to high relative humidity ([3]; high relative humidity, in words) | Crystal form after freezing [4] | Crystallinity after pressing [5]
C#CCN[C@@H]1CCc2ccc(OC(=O)N(C)CC)cc21 [Ladostigil, Ethyl-methyl-carbamic acid (R)-3-prop-2-ynylamino-indan-5-yl ester] | effective | – | – | – | – | – | – | – | – | – | – | – | – | – | – | – | – | –
carbamic acid, ethylmethyl-, (3R)-2,3-dihydro-3-(2-propynylamino)-1H-inden-5-yl ester, (2R,3R)-2,3-dihydroxybutanedioate (2:1) [Form A1, reference compound] | – | 0.3 | about 0.3% | 0.3 | 0.3 | 0.3 | 0.3 | 0.2 | 0.3 | 0.1 | 0.5 | partially transforms to form A | mixture of Form A and A1 | 0.1 | neither Form A nor Form A1 is hygroscopic | transforms to form A | Form A | lose some extent of crystallinity
